Results as given in patent US9624182B2, “Compounds as lysophosphatidic acid receptor antagonists” (Amira Pharmaceuticals, Inc., priority 2009, dated 2017).

Molecular target: T1, human LPA1 (Homo sapiens, UniProt Q92633)
T1 construct: the full-length cDNA for human LPA1 was obtained by PCR of the reverse transcription reaction; expressed in transfected cells
Assay: LPA1 calcium flux assay
Assay type: cell-based
Conditions: CHO cells expressing human LPA1, stimulated with 10 nM LPA; read-out: HLPA1 Ca Flux IC50
Procedure, shortened: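 CHO cells stably expressing cloned human LPA1, serum-starved overnight, loaded with Calcium 4 dye 1 h at 37 °C in HBSS/20 mM Hepes with 0.3% fatty-acid-free HSA. Compounds preincubated 30 min at room temperature, then cells stimulated with 10 nM LPA; intracellular Ca2+ read by fluorescence. IC50 from titration curves.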

T1 sequence (Q92633 whole entry): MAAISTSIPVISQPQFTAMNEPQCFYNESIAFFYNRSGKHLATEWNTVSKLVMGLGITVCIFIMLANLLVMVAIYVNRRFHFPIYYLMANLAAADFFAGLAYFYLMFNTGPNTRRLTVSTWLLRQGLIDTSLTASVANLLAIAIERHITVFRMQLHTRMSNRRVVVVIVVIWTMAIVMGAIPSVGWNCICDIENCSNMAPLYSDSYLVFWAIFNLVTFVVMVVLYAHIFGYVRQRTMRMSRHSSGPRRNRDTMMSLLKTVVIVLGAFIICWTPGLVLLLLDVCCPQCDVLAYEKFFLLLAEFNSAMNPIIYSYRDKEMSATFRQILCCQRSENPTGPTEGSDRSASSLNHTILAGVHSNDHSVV

Compound	IC50
Cc1noc(-c2ccc(-c3ccccc3C3(C(=O)O)CC3)cc2)c1/C=C/CCc1ccccc1 [Compound 1-63, 1-{4′-[3-Methyl-4-((E)-4-phenyl-but-1-enyl)-isoxazol-5-yl]-biphenyl-2-yl}-cyclopropanecarboxylic acid]	1000 to 50000 nM
Cc1noc(-c2ccc(-c3ccc(C4(C(=O)O)CC4)cc3)cc2)c1CNC(=O)C1(c2ccccc2)CC1 [Compound 1-64, 1-[4′-(3-Methyl-4-{[(1-phenyl-cyclopropanecarbonyl)-amino]-methyl}-isoxazol-5-yl)-biphenyl-4-yl]-cyclopropanecarboxylic acid]	< 300 nM
Cc1noc(-c2ccc(-c3ccc(C4(C(=O)O)CC4)cc3)cc2)c1CC(=O)N[C@@H]1CCc2ccccc21 [Compound 1-65, 1-{4′-[4-(Indan-1-ylcarbamoylmethyl)-3-methyl-isoxazol-5-yl]-biphenyl-4-yl}-cyclopropanecarboxylic acid]	> 50000 nM
Cc1noc(-c2ccc(-c3ccc(C4(C(=O)O)CC4)cc3)cc2)c1CC(=O)N1Cc2ccccc2C1 [Compound 1-66, 1-(4′-{4-[2-(1,3-Dihydro-isoindol-2-yl)-2-oxo-ethyl]-3-methyl-isoxazol-5-yl}-biphenyl-4-yl)-cyclopropanecarboxylic acid]	> 50000 nM
Cc1noc(-c2ccc(-c3ccc(C4(C(=O)O)CC4)cc3)cc2)c1CN(C)CCc1ccccc1 [Compound 1-67, 1-(4′-{3-Methyl-4-[(methyl-phenethyl-amino)-methyl]-isoxazol-5-yl}-biphenyl-4-yl)-cyclopropanecarboxylic acid]	< 300 nM
CC(=O)N(Cc1c(C)noc1-c1ccc(-c2ccc(C3(C(=O)O)CC3)cc2)cc1)CC(C)c1ccccc1 (stereo not shown) [Compound 1-70, 1-[4′-(4-{[Acetyl-(2-phenyl-propyl)-amino]-methyl}-3-methyl-isoxazol-5-yl)-biphenyl-4-yl]-cyclopropanecarboxylic acid]	< 300 nM
Cc1noc(-c2ccc(-c3ccc(C4(C(=O)O)CC4)cc3)cc2)c1CN(C)C(=O)Cc1ccccc1 [Compound 1-71, 1-(4′-{3-Methyl-4-[(methyl-phenylacetyl-amino)-methyl]-isoxazol-5-yl}-biphenyl-4-yl)-cyclopropanecarboxylic acid]	300 to 1000 nM
Cc1noc(-c2ccc(-c3ccc(C4(C(=O)O)CC4)cc3)cc2)c1CN(C)C(=O)C(C)Oc1ccccc1 (stereo not shown) [Compound 1-72, 1-[4′-(3-Methyl-4-{[methyl-(2-phenoxy-propionyl)-amino]-methyl}-isoxazol-5-yl)-biphenyl-4-yl]-cyclopropanecarboxylic acid]	< 300 nM
Cc1noc(-c2ccc(-c3ccc(C4(C(=O)O)CC4)cc3)cc2)c1CN(CC(C)c1ccccc1)C(=O)C1CC1 (stereo not shown) [Compound 1-73, 1-[4′-(4-{[Cyclopropanecarbonyl-(2-phenyl-propyl)-amino]-methyl}-3-methyl-isoxazol-5-yl)-biphenyl-4-yl]-cyclopropanecarboxylic acid]	1000 to 50000 nM
Cc1noc(-c2ccc(-c3ccc(C4(C(=O)O)CC4)cc3)cc2)c1CN(CC(C)c1ccccc1)C(=O)c1ccccc1 (stereo not shown) [Compound 1-74, 1-[4′-(4-{[Benzoyl-(2-phenyl-propyl)-amino]-methyl}-3-methyl-isoxazol-5-yl)-biphenyl-4-yl]-cyclopropanecarboxylic acid]	1000 to 50000 nM
Cc1noc(-c2ccc(-c3ccc(C4(C(=O)O)CC4)cc3)cc2)c1CCOCc1ccccn1 [Compound 1-75, 1-(4′-{3-Methyl-4-[2-(pyridin-2-ylmethoxy)-ethyl]-isoxazol-5-yl}-biphenyl-4-yl)-cyclopropanecarboxylic acid]	1000 to 50000 nM
Cc1noc(-c2ccc(-c3ccc(C4(C(=O)O)CC4)cc3)cc2)c1CCOCc1cccnc1 [Compound 1-76, 1-(4′-{3-Methyl-4-[2-(pyridin-3-ylmethoxy)-ethyl]-isoxazol-5-yl}-biphenyl-4-yl)-cyclopropanecarboxylic acid]	1000 to 50000 nM
Cc1noc(-c2ccc(-c3ccc(C4(C(=O)O)CC4)cc3)cc2)c1CCOCc1ccncc1 [Compound 1-77, 1-(4′-{3-Methyl-4-[2-(pyridin-4-ylmethoxy)-ethyl]-isoxazol-5-yl}-biphenyl-4-yl)-cyclopropanecarboxylic acid]	> 50000 nM
Cc1noc(-c2ccc(-c3ccc(C4(C(=O)O)CC4)cc3)cc2)c1CCC(=O)N(C)c1ccccc1 [Compound 1-82, 1-(4′-{3-Methyl-4-[2-(methyl-phenyl-carbamoyl)-ethyl]-isoxazol-5-yl}-biphenyl-4-yl)-cyclopropanecarboxylic acid]	< 300 nM
Cc1noc(-c2ccc(-c3ccc(C4(C(=O)O)CC4)cc3)cc2)c1CC[S+]([O-])Cc1ccccc1 (stereo not shown) [Compound 1-84, 1-{4′-[3-Methyl-4-(2-phenylmethanesulfinyl-ethyl)-isoxazol-5-yl]-biphenyl-4-yl}-cyclopropanecarboxylic acid]	1000 to 50000 nM
Cc1noc(-c2ccc(-c3ccc(C4(C(=O)O)CC4)cc3)cc2)c1CCS(=O)(=O)Cc1ccccc1 [Compound 1-85, 1-{4′-[3-Methyl-4-(2-phenylmethanesulfonyl-ethyl)-isoxazol-5-yl]-biphenyl-4-yl}-cyclopropanecarboxylic acid]	> 50000 nM

Compound	IC50
Cc1noc(-c2ccc(-c3ccc(C4(C(=O)O)CC4)cc3)cc2)c1CN(C)CC(C)c1ccccc1 (stereo not shown) [Compound 1-87, 1-[4′-(3-Methyl-4-{[methyl-(2-phenyl-propyl)-amino]-methyl}-isoxazol-5-yl)-biphenyl-4-yl]-cyclopropanecarboxylic acid]	< 300 nM
Cc1noc(-c2ccc(-c3ccc(C4(C(=O)O)CC4)cc3)cc2)c1CC(=O)CCc1ccccc1 [Compound 1-88, 1-{4′-[3-Methyl-4-(2-oxo-4-phenyl-butyl)-isoxazol-5-yl]-biphenyl-4-yl}-cyclopropanecarboxylic acid]	< 300 nM
Cc1noc(-c2ccc(-c3ccc(C4(C(=O)O)CC4)cc3)cc2)c1CC(=O)NC1Cc2ccccc2C1 [Compound 1-90, 1-{4′-[4-(Indan-2-ylcarbamoylmethyl)-3-methyl-isoxazol-5-yl]-biphenyl-4-yl}-cyclopropanecarboxylic acid]	< 300 nM
Cc1noc(-c2ccc(-c3ccc(C4(C(=O)O)CC4)cc3)cc2)c1CC(=O)N(C)Cc1ccccc1F [Compound 1-91, 1-[4′-(4-{[(2-Fluoro-benzyl)-methyl-carbamoyl]-methyl}-3-methyl-isoxazol-5-yl)-biphenyl-4-yl]-cyclopropanecarboxylic acid]	< 300 nM
Cc1noc(-c2ccc(-c3ccc(C4(C(=O)O)CC4)cc3)cc2)c1CC(=O)N[C@H]1c2ccccc2C[C@H]1O [Compound 1-92, 1-(4′-{4-[((1S,2R)-2-Hydroxy-indan-1-ylcarbamoyl)-methyl]-3-methyl-isoxazol-5-yl}-biphenyl-4-yl)-cyclopropanecarboxylic acid]	1000 to 50000 nM
Cc1noc(-c2ccc(-c3ccc(C4(C(=O)O)CC4)cc3)cc2)c1/C=C\CCc1ccccc1 [Compound 1-94, 1-{4′-[3-Methyl-4-((Z)-4-phenyl-but-1-enyl)-isoxazol-5-yl]-biphenyl-4-yl}-cyclopropanecarboxylic acid]	< 300 nM
Cc1noc(-c2ccc(-c3ccc(C4(C(=O)O)CC4)cc3)cc2)c1/C=C/CCc1ccccc1 [Compound 1-95, 1-{4′-[3-Methyl-4-((E)-4-phenyl-but-1-enyl)-isoxazol-5-yl]-biphenyl-4-yl}-cyclopropanecarboxylic acid]	300 to 1000 nM
Cc1noc(-c2ccc(-c3ccc(C4(C(=O)O)CC4)cc3)cc2)c1CSCC(C)C [Compound 1-96, 1-[4′-(4-Isobutylsulfanylmethyl-3-methyl-isoxazol-5-yl)-biphenyl-4-yl]-cyclopropanecarboxylic acid]	< 300 nM
Cc1noc(-c2ccc(-c3ccc(C4(C(=O)O)CC4)cc3)cc2)c1C(C)C(=O)NC(C)c1ccccc1 (stereo not shown) [Compound 1-97, 1-(4′-{3-Methyl-4-[1-(1-phenyl-ethylcarbamoyl)-ethyl]-isoxazol-5-yl}-biphenyl-4-yl)-cyclopropanecarboxylic acid]	1000 to 50000 nM
Cc1noc(-c2ccc(-c3ccc(C4(C(=O)O)CC4)cc3)cc2)c1CNC(=O)C(C)(C)c1ccccc1 [Compound 1-98, 1-(4′-{3-Methyl-4-[(2-methyl-2-phenyl-propionylamino)-methyl]-isoxazol-5-yl}-biphenyl-4-yl)-cyclopropanecarboxylic acid]	< 300 nM
Cc1noc(-c2ccc(-c3ccc(C4(C(=O)O)CC4)cc3)cc2)c1CC(=O)N[C@H]1CCc2ccccc21 [Compound 1-99, 1-{4′-[4-((S)-Indan-1-ylcarbamoylmethyl)-3-methyl-isoxazol-5-yl]-biphenyl-4-yl}-cyclopropanecarboxylic acid]	< 300 nM
Cc1noc(-c2ccc(-c3ccc(C4(C(=O)O)CC4)cc3)cc2)c1CNC(=O)C(C)Oc1ccccc1 (stereo not shown) [Compound 1-100, 1-(4′-{3-Methyl-4-[(2-phenoxy-propionylamino)-methyl]-isoxazol-5-yl}-biphenyl-4-yl)-cyclopropanecarboxylic acid]	300 to 1000 nM
Cc1noc(-c2ccc(-c3ccc(C4(CC(=O)O)CC4)cc3)cc2)c1/C=C\CCc1ccccc1 [Compound 1-101, (1-{4′-[3-Methyl-4-((Z)-4-phenyl-but-1-enyl)-isoxazol-5-yl]-biphenyl-4-yl}-cyclopropyl)-acetic acid]	< 300 nM
Cc1noc(-c2ccc(-c3ccc(C4(CC(=O)O)CC4)cc3)cc2)c1/C=C/CCc1ccccc1 [Compound 1-102, (1-{4′-[3-Methyl-4-((E)-4-phenyl-but-1-enyl)-isoxazol-5-yl]-biphenyl-4-yl}-cyclopropyl)-acetic acid]	300 to 1000 nM
CCN(Cc1c(C)noc1-c1ccc(-c2ccc(C3(C(=O)O)CC3)cc2)cc1)C[C@H](C)c1ccccc1 [Compound 1-104, 1-[4′-(4-{[Ethyl-((R)-2-phenyl-propyl)-amino]-methyl}-3-methyl-isoxazol-5-yl)-biphenyl-4-yl]-cyclopropanecarboxylic acid]	< 300 nM
